Source: patent publication US20110152362A1, “METHODS OF TREATING EPILEPTOGENESIS AND EPILEPSY” (priority 2004, published 2011)

What was measured:
[1] = system: rats subjected to li-pilo SE; experiment: Example 2: mortality over the first 48 h after Li-pilo SE; assay type: in vivo, rat; design: concentration or dose not given beside the values
[2] = Example 3 study 1: single oral dose pharmacokinetics in healthy men; assay type: in vivo, human
Procedure: Two single-center, placebo-controlled, double-blind, ascending-dose studies were conducted in healthy men ≧18 and ≦45 yrs. In study 1 (N=70), subjects were randomly assigned to a single dose of Test Compound (TC) or placebo. Escalated doses were received as 100, 250, 400, 750, 1000, 1250, and 1500 mg. PK parameters were estimated from plasma and urine samples collected up to 3 days post dose. Study 2 (N=53) evaluated the PK of repeated doses of Test Compound (TC) in 4 dose groups (100, 250, 500, or 750 mg). Within each group, 12 subjects were assigned to q12h treatment with drug or placebo for 1 wk and were crossed over after a 14-day washout period. PK parameters were estimated from plasma and urine samples on days 1 and 7.

[3] = system: rats subjected to Li-pilo induced SE; experiment: Example 1: Timm staining, mossy fiber sprouting in hippocampus; assay type: in vivo, rat; settings: for Timm score: 60 mg/kg
Procedure: At 2 months after the onset of spontaneous recurrent seizures, mossy fiber sprouting was examined on rats in the chronic period exposed to the test compound or DZP and in 3 saline-saline rats. Animals were deeply anaesthetized and perfused transcardially with saline followed by 100 ml of 1.15% (w/v) Na2S in 0.1 M phosphate buffer, and 100 ml of 4% (v/v) formaldehyde in 0.1 M phosphate buffer. Brains were removed from skull, post-fixed in 4% formaldehyde during 3-5 h and 40 μm sections were cut on a sliding vibratome and mounted on gelatin-coated slides.
The following day, sections were developed in the dark in a 26° C. solution of 50% (w/v) arabic gum (160 ml), sodium citrate buffer (30 ml), 5.7% (w/v) hydroquinone (80 ml) and 10% (w/v) silver nitrate (2.5 ml) during 40-45 min. The sections were then rinsed with tap water at 40° C. during at least 45 min, rinsed rapidly with distilled water and allowed to dry. They were dehydrated in ethanol and coverslipped.
Mossy fiber sprouting was evaluated according to criteria previously described in dorsal hippocampus (Cavazos et al., 1991, J Neurosci 11:2795-2803.), which are follows: 0—no granules between the tips and crest of the DG; 1—sparse granules in the supragranular region in a patchy distribution between the tips and crest of DG; 2—more numerous granules in a continuous distribution between the tips and crest of DG; 3—prominent granules in a continuous pattern between tips and crest, with occasional patches of confluent granules between tips and crest; 4—prominent granules that form a confluent dense laminar band between tips and crest and 5—confluent dense laminar band of granules that extends into the inner molecular layer.

[4] = system: rats subjected to Li-pilo induced SE; experiment: Example 1: latency to and frequency of spontaneous recurrent seizures (SRS), lithium-pilocarpine model; assay type: in vivo, rat
Procedure: (§1) The bilateral EEG cortical activity was recorded during the whole duration of SE and behavioral changes were noted.
(§2) The effects of increasing doses of the Test Compound were studied on 3 groups of rats. The animals of the first group received 10 mg/kg of the test compound, i.p., 1 h after the onset of SE (pilo-TC10) while the animals of groups 2 and 3 received 30 and 60 mg/kg of the Test Compound (pilo-TC30 and pilo-TC60), respectively.
(§3) The control group received saline instead of pilocarpine and the Test Compound (saline-saline). […] Pilo-DZP received a second injection of 1 mg/kg DZP on the day of SE at about 10 h after the first one. Thereafter, Pilo-DZP and saline-saline rats received twice daily an equivalent volume of saline.
The effects of the test compound on the EEG and on the latency to occurrence of SRS were investigated by daily video recording of the animals for 10 h per day and the recording of the electrographic activity twice a week for 8 h.
To calculate the frequency of SRS in pilocarpine-exposed rats, the seizure severity and distinguished stage III (clonic seizures of facial muscles and anterior limbs) and stage IV-V seizures (rearing and falling) was measured. The frequency of stage III SRS per week in pilo-DZP and pilo-test compound rats was variable amongst the groups. It was low, constant in the pilo-DZP and pilo-TC60 (with early SRS onset) groups during the first 3 weeks and had disappeared during the 4th week in the pilo-DZP group. […] The frequency of more severe stage IV-V SRS was highest during the first week in most groups, except pilo-TC30 and TC60 with late seizure onset where the SRS frequency was constant over the whole 4 weeks in TC30 group and over the first two weeks in the pilo-TC60 group with late SRS onset in which no stage IV-V seizures where no seizures recorded after the second week.

[5] = Blood levels in rats, oral administration of Test Compound for 8 days (toxicology studies); assay type: in vivo; settings: rat; for Cmax at 8 days: blood
Source text: In toxicology studies in rats, oral administration of Test Compound (TC) for 8 days produced the following C max and AUC: […]

[6] = system: rats subjected to Li-pilo induced SE; experiment: Example 1: mortality induced by lithium-pilocarpine status epilepticus; assay type: in vivo, rat
Procedure: as §1, §2, §3

seizures in rats = experiment: ED50 for preventing seizures in rats; assay type: in vivo; settings: Rattus norvegicus, depending on the time and experiment type

NC(=O)OC[C@@H](O)c1ccccc1Cl [TC]
mortality over the first 48 h after SE ([1]; TC30, group for cell counting at 14 days): 33%
mortality over the first 48 h after SE ([1]; TC30, group for latency to SRS and late cell counting): 27%
mortality over the first 48 h after SE ([1]; TC60, group for cell counting at 14 days): 8%
mortality over the first 48 h after SE ([1]; TC60, group for latency to SRS and late cell counting): 0%
mortality over the first 48 h after SE ([1]; TC90, group for cell counting at 14 days): 0%
mortality over the first 48 h after SE ([1]; TC90, group for latency to SRS and late cell counting): 0%
mortality over the first 48 h after SE ([1]; TC120, group for cell counting at 14 days): 33%
mortality over the first 48 h after SE ([1]; TC120, group for latency to SRS and late cell counting): 0%
Tmax ([2]; male, human, plasma, single oral dose 100-1500 mg, healthy men): 1.3 to 2.7 h
half-life ([2]; male, human, plasma, single oral dose 100-1500 mg, healthy men, read-out: Mean t1/2): 11.5 to 13.9 h
Cmax and AUC0-∞ dose dependence ([2]; single dose over the range of 100-1500 mg): increased in proportion to dose
Mean CL/F ([2]; single oral dose 100-1500 mg, healthy men): 2.87 to 3.67 L/h
absorption following oral administration ([2]; single oral dose, healthy men): rapidly absorbed
Timm score ([3]; subgroup with early SRS occurrence): 1.8±0.6
Timm score ([3]; subgroup with late occurrence or absence of SRS): 1.2±0.6
Timm score in the upper blade of the dentate gyrus, mean ([3]; pilo-TC10 rats): 1.5±0.6
Timm score in the upper blade of the dentate gyrus, mean ([3]; pilo-TC30 rats): 2.6±1.0
Timm score in the upper blade of the dentate gyrus, mean ([3]; whole group of pilo-TC60 rats): 1.5±0.7
rats in which occurrence of spontaneous seizures was delayed ([4]; TC 60 mg/kg (4 out of 11)): 36%
mean delay to epilepsy in subgroup vs other groups of animals ([4]; TC 60 mg/kg, subgroup): about 9 fold longer
latency to SRS ([4]; TC60, subgroup with latency similar to other groups (n=7)): 17.6 ± 8.7 days
latency to SRS, mean ([4]; TC60, subgroup with much longer delay (n=4)): 149.8 ± 36.0 days
frequency of stage IV-V SRS ([4]; first week, TC10, TC30 and TC60 (with early SRS onset) groups): 2.3-6.1 SRS per week
frequency of stage III SRS ([4]; pilo-TC10 group, weeks 3 and 4): significantly increased over pilo-DZP values
latency to SRS ([4]; pilo-TC10 rats): 15.4 ± 5.1 days
latency to SRS ([4]; pilo-TC30 rats): 18.9 ± 9.0 days
frequency of stage IV-V SRS ([4]; weeks 2-4, pilo-TC60 group with early SRS onset): 0.6-0.9 seizure per week
Cmax at 8 days ([5]; oral 30 mg/kg/day for 8 days): 9330 ng/mL
Cmax at 8 days ([5]; oral 100 mg/kg/day for 8 days): 20600 ng/mL
Cmax at 8 days ([5]; oral 300 mg/kg/day for 8 days): 70300 ng/mL
AUC ([5]; oral 30 mg/kg/day for 8 days): 97.32 micrograms-hour/mL
AUC ([5]; oral 100 mg/kg/day for 8 days): 230.33 micrograms-hour/mL
AUC ([5]; oral 300 mg/kg/day for 8 days): 525.95 micrograms-hour/mL
mortality during the first 48 h after SE ([6]; pilo-TC10, 10 mg/kg i.p.): 26%
mortality during the first 48 h after SE ([6]; pilo-TC30, 30 mg/kg i.p.): 20%
mortality during the first 48 h after SE ([6]; pilo-TC60, 60 mg/kg i.p.): 4%
ED50 (seizures in rats): 4 to 30 mg/kg
